Values quoted from earlier work as cited in PMC6971042, “Exploring ion-ion preferences through structure-property correlations: amino acid-derived, bis(guanidinium) disiloxane salts” (Scientific Reports, 2020).

Parameters: method as in PMID 26714187
Details: qualitative

**Q.** With C[Si](C)(CCCNC(=N)N)O[Si](C)(C)CCCNC(=N)N [GUA, 1,3-bis(3-guanidinopropyl)-tetramethyldisiloxane dichloride] as the molecule, how does the water solubility read?
**A.** fully water-miscible

**Q.** With C[Si](C)(CCCNC(=N)N)O[Si](C)(C)CCCNC(=N)N.O=[N+]([O-])O [1,3-bis(3-guanidinopropyl)-tetramethyldisiloxane nitrate] as the molecule, how does the water solubility read?
**A.** abnormally low
